Reference: EP1129187B1, “NEW FAMILY OF MAMMALIAN POTASSIUM CHANNELS, THEIR CLONING AND THEIR USE, ESPECIALLY FOR THE SCREENING OF DRUGS” (CENTRE NATIONAL DE LA RECHERCHE SCIENTIFIQUE (CNRS), priority 1998, dated 2000)
Read-outs that look alike come from different tables or passages of the source.

Columns and labels:
[1] = target: T1, human TWIK-1 K+ channel, SEQ ID NO: 2 (Homo sapiens, UniProt O00180); assay: TWIK-1 K+ currents, two-electrode voltage clamp in Xenopus oocytes injected with TWIK-1 cRNA; format: cell-based
T1 construct: expressed in transfected cells; host or cells: Xenopus laevis oocytes injected with cRNA transcribed from pEXO-TWIK-1
T1 sequence (O00180 1-336): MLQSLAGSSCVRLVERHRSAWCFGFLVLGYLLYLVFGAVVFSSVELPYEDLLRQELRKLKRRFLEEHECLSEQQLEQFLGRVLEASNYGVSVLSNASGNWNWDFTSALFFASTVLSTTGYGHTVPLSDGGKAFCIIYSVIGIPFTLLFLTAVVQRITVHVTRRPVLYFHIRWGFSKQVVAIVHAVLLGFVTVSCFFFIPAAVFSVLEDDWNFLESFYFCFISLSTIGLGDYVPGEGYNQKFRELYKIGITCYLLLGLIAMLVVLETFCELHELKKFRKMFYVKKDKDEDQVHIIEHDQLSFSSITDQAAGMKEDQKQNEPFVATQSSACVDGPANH
Experimental: For the functional study, the coding sequence of TWIK-1 was inserted between the noncoding sequences 5' and 3' of Xenopus globin in the vector pEXO (Lingueglia, E. et al., 1993, J. Biol. Chem., 269, 13736-13739). A complementary RNA (cRNA) was transcribed of this construction and injected in the oocytes of X laevis. In a 0.3ml perfusion chamber, a single oocyte was impaled on two standard glass microelectrodes (0.5 - 2.0 MW) charged with 3 M KCI and maintained under voltage-clamp with a Dagan TEV200 amplifier. The bath solution contained 98 mM KCl,1.8 raM CaCl2 […] and 5 mM HEPES at pH 7.4 with KOH. Stimulation of the preparation, data acquisition and analyses were carried out with the pClamp program (Axon Instruments) USA3.
Intracellular acidification of the oocytes was produced using two methods: • superfusion with a solution enriched in CO2 which produces acidification by a mechanism involving the bicarbonate transport system (Guillemare, E. et al., 1995, Mol. Pharmacol., 47, 588-594); • treatment with dinitrophenol (DNP), which is a metabolic inhibitor that decouples the H+ gradient in mitochondria and induces internal acidity (Pedersen, P. L. and Carafoli, E., 1997, Trends Biol. Sci., 12, 146-189).
Phosphorylation or dephosphorylation of specific amino acid residues is an important mechanism of regulation of the ionic channels (Levitan, I. B., 1994, Annul Rev. Physiol., 56, 193-212).

[2] = target: T2, human TASK-2 K+ channel, SEQ ID NO: 28 (Homo sapiens, UniProt O95279); assay: TASK-2 currents elicited by voltage pulses to +50 mV, whole cell recording in transfected COS cells; format: cell-based
T2 construct: expressed in transfected cells; host or cells: COS cells transiently transfected with pIREScd8-TASK-2 (DEAE-dextran)
T2 sequence (O95279 1-499): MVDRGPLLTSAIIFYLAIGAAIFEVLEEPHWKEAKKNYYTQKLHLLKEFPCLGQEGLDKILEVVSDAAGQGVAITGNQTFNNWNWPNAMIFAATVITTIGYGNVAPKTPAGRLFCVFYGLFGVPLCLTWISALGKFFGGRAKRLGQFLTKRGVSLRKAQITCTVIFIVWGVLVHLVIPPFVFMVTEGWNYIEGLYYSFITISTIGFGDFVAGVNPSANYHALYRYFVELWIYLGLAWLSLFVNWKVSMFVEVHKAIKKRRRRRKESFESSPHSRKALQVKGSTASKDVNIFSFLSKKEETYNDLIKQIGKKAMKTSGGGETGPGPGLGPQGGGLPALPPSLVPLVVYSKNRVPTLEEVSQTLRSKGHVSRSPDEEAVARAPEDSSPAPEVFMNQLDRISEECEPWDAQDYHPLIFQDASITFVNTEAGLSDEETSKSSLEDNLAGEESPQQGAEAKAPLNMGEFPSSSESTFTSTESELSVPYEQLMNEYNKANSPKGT
Experimental: For patch clamp analyses, a NotI/EcoRI fragment of 3.2 kb was excised from pBS-TASK 2 and subcloned into the pIRES-CD8 vectorto givepIREScdB-TASK-2. ThepIRES-CD8 vector was obtained by replacing the neo^R gene in the original vector pIRESneo (Clontech) by the coding sequence of the T type lymphocyte's surface marker CD8. COS cells were seeded at a density of 20,000 cells per 35 mm dishes 24 h prior to transfection. Cells were then transiently transfected by the classical DEAE-dextian method with 1 µg of prREScdB-TASK-2 plasmid per 35 mm dish. Transiently-transfected cells were visualized 48 h after transfection using the anti-CD8 antibody coated beads method (24). For whole cell recordings, the internal solution contained 150 mM KCI, 3 mM MgCl2, 5 mM EGTA, and 10 mM HEPES at pH 7.2 with KOH, and he external solution 150 mM NaCl, 5 mM KCI, 3 mM MgCl2 1 mM CaCl2, 10 mM HEPES at pH 7.4 with NaOH.
The effects of various pharmacological agents on currents elicited by voltage pulses to +50 mV have been studied in TASK-2-exprcssing. COS cells.

[3] = target: T1, human TWIK-1 K+ channel, SEQ ID NO: 2; assay: TWIK-1 single channel activity, excised patch from Xenopus oocytes; format: cell-based; conditions: perfusion of the excised patch with 10 mM
Experimental: The pipettes were filled with a strong K+ solution (40 mM KCl, 100 mM of potassium methane sulfonate, 1.8 mM CaCl2, 2 m M MgCl2 and 5 mM HEPES adjusted to pH 7.4 with KOH). 100 µM of GdCl3 was added to the pipette solution to inhibit the action of the […]. The inside-out patches were perfused with a solution containing 140 mM KC1,10 mM CaCl2, 5 mM HEPES adjusted to pH 7.2 with KOH and 5 m M EGTA added daily. The single channel signals were filtered at 3.5 kHz and analyzed with the Biopatch program (Big-Logic, Grenoble, France).
With 3 mM of internal Mg^2+, the mean duration of opening at +80 mV is 1.9 ms and the unitary conductance is 19 +/- 1 pS (Figure 5c). At -80 mV, the channels are oscillating with a mean duration of opening of 0.3 ms, and a conductance value in creasing to 34 pS. […] In contrast to numerous channels which require the presence of ATP for their activity in the excised patch configuration, ATP is not required for the expression of TWIK-1.

[4] = target: human TASK1 K+ channel, SEQ ID NO: 4 (Homo sapiens, UniProt O14649); assay: TASK1 currents elicited by voltage pulses to +50 mV, two-electrode voltage clamp in Xenopus oocytes; format: cell-based; conditions: for inhibition at 100 µM: read-out: TASK1 currents inhibited
Experimental: For functional studies, TASK1 cRNAs were injected into Xenopus oocytes. This was accomplished by subcloning a 2480 bp SmaI/XhoI fragment from pBS-hT ASK containing 14 bp of 5' UTR, the coding sequence and the entire 3' UTR into the pEXO vector (Lingueglia et al., 1993) to give pEXO-TASK1. Capped-cRNAs were synthesised in vitro from the linearized plasmid by using the T7 RNA polymerase (Stratagene). Xenopus laevis were purchased from CRBM (Montpellier, France). Preparation and cRNA injection of oocytes has been described elsewhere (Guillemare et al., 1992). Oocytes were used for electrophysiological studies 2 to 4 days following injection (20 ng/oocyte). In a 0.3 ml perfusion chamber, a single oocyte was impaled with two standard microelectrodes (1-2.5 Mn resistance) filled with 3 M KCI and maintained under voltage clamp by using a Dagan TEV 200 amplifier, in standard ND96 solution (96 mM NaC1. 2 mM KCI, 1.8 mM CaCI2, 2 mM MgCl2, 5 mM HEPES, pH 7.4 with NaOH). In some experiments, NaCl was substituted with TMA Cl (Tetra Methyl Ammonium Chloride). Stimulation of the preparation, data acquisition, and analysis were performed using pClamp software (Axon instruments, USA). Drugs were applied externally by addition to the superfusate (flow rate: 3 ml/min) or intracellularly injected by using a pressure microinjector (Inject+Matic, Switzedand). All experiments were performed at room temperature (21-22 °C).
Figure 12A presents the I-V relationships of the current in K^+-rich solutions ranging from 2 mM to 98 mM. […] The theoretical I-V relationships in various [K^+]out calculated according to the Goldman-Hodgkin-Katz current equation are shown in Figure 12D. […] The effect of various pharmacological agents on currents elicited by voltage pulses to +50 mV has been studied in TASK1-expressing oocytes.

[5] = target: TWIK-1 (Tandem of P domains in a Weak Inward rectifying K+ channel) (human); assay: cell-based or functional assay
[6] = read-out: inhibition of TWIK-1 currents
[7] = COS, read-out: inhibition of the TASK-2 current

Sequence of human TASK1 K+ channel, SEQ ID NO: 4 (O14649 whole entry, the tested form may be a part): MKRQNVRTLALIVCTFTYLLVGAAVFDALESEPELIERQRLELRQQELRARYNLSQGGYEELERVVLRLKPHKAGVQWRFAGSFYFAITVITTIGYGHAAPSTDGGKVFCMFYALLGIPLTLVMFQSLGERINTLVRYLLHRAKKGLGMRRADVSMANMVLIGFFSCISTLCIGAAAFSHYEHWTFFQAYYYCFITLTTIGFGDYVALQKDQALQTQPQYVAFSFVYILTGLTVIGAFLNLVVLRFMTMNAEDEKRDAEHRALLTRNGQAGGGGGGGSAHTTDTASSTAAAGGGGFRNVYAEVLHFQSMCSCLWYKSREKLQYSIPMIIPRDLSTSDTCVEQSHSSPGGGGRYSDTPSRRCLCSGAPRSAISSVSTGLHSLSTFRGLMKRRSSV
Sequence of charybdotoxine (P13487 23-59 limits assumed): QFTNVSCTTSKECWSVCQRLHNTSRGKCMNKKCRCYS

Nc1ccncc1 [4-aminopyridine]
inhibition at 1000 µM ([1]; at 1 mM, read-out: inhibition of TWIK-1 currents): < 10% | effect on TASK-2 currents ([2]; 100 µM): inactive

Nc1ncnc2c1nc(Cl)n2[C@@H]1O[C@@H]2COP(=O)(O)O[C@H]2[C@H]1O [8-Cl-AMPc, 8-chloro cAMP]
effect on the activity of TWIK-1 ([1]; 300 µM, activation of protein kinase A): does not affect | sensitivity of TASK-2 currents ([2]; perfusion of 500 µM): insensitive

CNc1ccc2oc(C[C@H]3O[C@@]4(CC[C@H]3C)O[C@H]([C@H](C)C(=O)c3ccc[nH]3)[C@H](C)C[C@H]4C)nc2c1C(=O)O [A23187]
effect on the properties of the TWIK-1 channel [1]: without effect

Nc1ncnc2c1ncn2[C@@H]1O[C@H](COP(=O)(O)OP(=O)(O)OP(=O)(O)O)[C@@H](O)[C@H]1O [ATP]
effect on the activity of the TWIK-1 channel [3]: does not induce any effect

O=[N+]([O-])c1ccc(O)c([N+](=O)[O-])c1 [DNP, dinitrophenol]
inhibition at 1000 µM ([1]; DNP 1 mM, intracellular acidification, % of the control amplitude, read-out: reduction in the TWIK-1 currents): 80%

O=C(O)CN(CCOCCOCCN(CC(=O)O)CC(=O)O)CC(=O)O [EGTA]
sensitivity of TASK1 currents ([4]; injection of 100 mM, internal Ca2+ change): insensitive

CC(C)Cn1c(=O)n(C)c(=O)c2[nH]cnc21 [IBMX]
sensitivity of TASK1 currents ([4]; IBMX 1 mM perfused together with forskolin 10 µM, activation of adenyl cyclase): insensitive | sensitivity of TASK-2 currents ([2]; IBMX 1 mM in a cocktail with forskolin 10 µM, increasing intracellular cAMP): insensitive

CCCCCCCCCC(=O)O[C@@H]1[C@@H](C)[C@@]2(O)[C@@H](C=C(CO)C[C@@]3(O)C(=O)C(C)=C[C@@H]23)[C@@H]2C(C)(C)[C@]12OC(=O)CCCCCCCCC [PDA, 4α-phorbol-12, 13 didecanoate]
effect on TWIK-1 currents [1]: no effect

CC[N+](CC)(CC)CC [TEA, tetraethylammonium]
inhibition at 20000 µM [1, 6]: 30% | effect on TASK-2 currents ([2]; 1 mM): inactive

CCCCc1oc2ccccc2c1C(=O)c1cc(I)c(OCCN(CC)CC)c(I)c1 [amiodarone]
inhibition at 100 µM [1, 6]: < 10%

CCCCC/C=C\C/C=C\C/C=C\C/C=C\CCCC(=O)O [arachidonic acid]
sensitivity of TASK-2 ([2]; 10 µM): not sensitive

CCCCN1CCCCC1C(=O)Nc1c(C)cccc1C (stereo not shown) [bupivacaïne]
inhibition at 1000 µM ([2]; COS, 1 mM, n = 4, read-out: inhibition of the TASK-2 current): 80.9%

CCCCCCC[N+](CC)(CC)CCCCc1ccc(Cl)cc1 [clofilium]
inhibition at 30 µM [1]: < 10%

CC1(C)Oc2ccc(C#N)cc2C(N2CCCC2=O)C1O (stereo not shown) [cromakaline]
sensitivity of the TWIK-1 channel to K+ channel opener ([1]; 140 µM): not sensitive

COc1ccc(Cl)cc1C(=O)NCCc1ccc(S(=O)(=O)NC(=O)NC2CCCCC2)cc1 [glibenclamide]
inhibition at 30 µM [1]: < 10%

O=P(O)(O)O[C@@H]1[C@H](O)[C@H](O)[C@@H](OP(=O)(O)O)[C@H](OP(=O)(O)O)[C@H]1O [inositol triphosphate]
sensitivity of TASK1 currents ([4]; injection of 1 mM, internal Ca2+ change): insensitive

CCN(CC)CC(=O)Nc1c(C)cccc1C [lidocaine]
inhibition at 1000 µM [2, 7]: 60.4 ± 1.5%

CC(N/C(=N\C#N)Nc1ccncc1)C(C)(C)C (stereo not shown) [pinacidil]
sensitivity of the TWIK-1 channel to K+ channel opener ([1]; 100 µM): not sensitive

CCN(CC)CCCC(C)Nc1c2ccc(Cl)cc2nc2ccc(OC)cc12 (stereo not shown) [quinacrine]
inhibition at 100 µM [4]: < 20%

C=C[C@H]1C[N@@]2CC[C@H]1C[C@@H]2[C@@H](O)c1ccnc2ccc(OC)cc12 [quinidine]
inhibition at 100 µM [4]: < 20%

C=C[C@H]1C[N@@]2CC[C@H]1C[C@H]2[C@H](O)c1ccnc2ccc(OC)cc12 [quinine]
inhibition at 100 µM [4]: < 20% | IC50 [2]: 22.4 ± 1.8 µM | inhibition at 100 µM [2, 7]: 65 ± 3.8%

C1CCC2(C1)C1CN(CC3CC3)CC2CN(CC2CC2)C1 [tedisamil]
inhibition at 100 µM ([1]; at 100 µM, read-out: inhibition of TWIK-1 currents): 30%

apamin (from UniProt P01500 28-45) (peptide)
inhibition of TWIK-1 K+ currents (two-electrode voltage clamp, Xenopus oocytes) [5]: < 10%

charybdotoxine (from UniProt P13487 23-59) (peptide)
inhibition of TWIK-1 K+ currents (two-electrode voltage clamp, Xenopus oocytes) [5]: < 10%

dedrotoxine (peptide)
inhibition of TWIK-1 K+ currents (two-electrode voltage clamp, Xenopus oocytes) [5]: < 10%
